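Tested at 5 concentrations; 48 h exposure; 96-well plates; endpoints linearly interpolated, else capped at highest concentration. GI50 = concentration required for 50% inhibition of growth. TGI: total growth inhibition.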
Assays:
Assay in all cases: inhibition of tumour cell growth, NCI panel, 48 h
786-0 renal = system: 786-0 renal
A498 renal = system: A498 renal
A549 NSCLC = system: A549 NSCLC
ACHN renal = system: ACHN renal
BT-549 breast = system: BT-549 breast
CAKI-1 renal = system: CAKI-1 renal
CCRF-CEM leukemia = system: CCRF-CEM leukemia
COLO 205 colon = system: COLO 205 colon
DU-145 prostate = system: DU-145 prostate
EKVX NSCLC = system: EKVX NSCLC
HCC-2998 colon = system: HCC-2998 colon
HCT-116 colon = system: HCT-116 colon
HCT-15 colon = system: HCT-15 colon
HL-60(TB) leukemia = system: HL-60(TB) leukemia
HOP-62 NSCLC = system: HOP-62 NSCLC
HOP-92 NSCLC = system: HOP-92 NSCLC
HS 578T breast = system: HS 578T breast
HT29 colon = system: HT29 colon
IGROV1 ovarian = system: IGROV1 ovarian
K-562 leukemia = system: K-562 leukemia
KM12 colon = system: KM12 colon
LOX IMVI melanoma = system: LOX IMVI melanoma
M14 melanoma = system: M14 melanoma
MALME-3M melanoma = system: MALME-3M melanoma
MCF7 breast = system: MCF7 breast
MDA-MB-231 breast = system: MDA-MB-231 breast
MDA-MB-435 = system: MDA-MB-435
MOLT-4 leukemia = system: MOLT-4 leukemia
NCI-H226 lung = system: NCI-H226 lung
NCI-H23 lung = system: NCI-H23 lung
NCI-H460 lung = system: NCI-H460 lung
NCI-H522 lung = system: NCI-H522 lung
NCI/ADR-RES ovarian = system: NCI/ADR-RES ovarian
OVCAR-3 ovarian = system: OVCAR-3 ovarian
OVCAR-4 ovarian = system: OVCAR-4 ovarian
OVCAR-5 ovarian = system: OVCAR-5 ovarian
OVCAR-8 ovarian = system: OVCAR-8 ovarian
PC-3 prostate = system: PC-3 prostate
RPMI-8226 leukemia = system: RPMI-8226 leukemia
RXF 393 renal = system: RXF 393 renal
SF-268 CNS = system: SF-268 CNS
SF-295 CNS = system: SF-295 CNS
SF-539 CNS = system: SF-539 CNS
SK-MEL-2 melanoma = system: SK-MEL-2 melanoma
SK-MEL-28 melanoma = system: SK-MEL-28 melanoma
SK-MEL-5 melanoma = system: SK-MEL-5 melanoma
SK-OV-3 ovarian = system: SK-OV-3 ovarian
SN12C renal = system: SN12C renal
SNB-19 CNS = system: SNB-19 CNS
SNB-75 CNS = system: SNB-75 CNS
SR leukemia = system: SR leukemia
SW-620 colon = system: SW-620 colon
T-47D breast = system: T-47D breast
TK-10 renal = system: TK-10 renal
U251 CNS = system: U251 CNS
UACC-257 melanoma = system: UACC-257 melanoma
UO-31 renal = system: UO-31 renal

Work on COc1cc(-c2cn(C)c(=O)c(C)c2C)cc(OC)c1CN1CC[C@H](N2CCN(c3ccc(N[C@H]4CCC(=O)NC4=O)cc3F)CC2)C(F)(F)C1 yielded a GI50 (786-0 renal) of 12.8 µM, a TGI (786-0 renal) of 36.6 µM and a GI50 (A498 renal) of 13.8 µM. It also gave a TGI (A498 renal) of 27.2 µM, a GI50 (A549 NSCLC) of 12.3 µM and a TGI (A549 NSCLC) of 31.1 µM. It also gave a GI50 (ACHN renal) of 15.2 µM, a TGI (ACHN renal) of 28.8 µM and a GI50 (BT-549 breast) of 12.6 µM. The TGI (BT-549 breast) was 28.3 µM, the GI50 (CAKI-1 renal) was 6.87 µM and the TGI (CAKI-1 renal) was 33.4 µM. The GI50 (CCRF-CEM leukemia) was 19.4 µM, the TGI (CCRF-CEM leukemia) was greater than 100 µM and the GI50 (COLO 205 colon) was 14.4 µM. It also gave a TGI (COLO 205 colon) of 37.4 µM, a GI50 (DU-145 prostate) of 27.6 µM and a TGI (DU-145 prostate) greater than 100 µM. The GI50 (EKVX NSCLC) was 12.7 µM, the TGI (EKVX NSCLC) was 34.9 µM and the GI50 (HCC-2998 colon) was 12.9 µM. For the same compound, the TGI (HCC-2998 colon) was 25.8 µM, the GI50 (HCT-116 colon) was 13.1 µM and the TGI (HCT-116 colon) was 27.7 µM. The GI50 (HCT-15 colon) was 10.7 µM, the TGI (HCT-15 colon) was 24.1 µM and the GI50 (HL-60(TB) leukemia) was 2.92 µM. For the same compound, the TGI (HL-60(TB) leukemia) was greater than 100 µM, the GI50 (HOP-62 NSCLC) was 14 µM and the TGI (HOP-62 NSCLC) was 39.2 µM. For the same compound, the GI50 (HOP-92 NSCLC) was 8.81 µM, the TGI (HOP-92 NSCLC) was 24.8 µM and the GI50 (HS 578T breast) was 4 µM. For the same compound, the TGI (HS 578T breast) was 38.5 µM, the GI50 (HT29 colon) was 11.4 µM and the TGI (HT29 colon) was 27.2 µM. For the same compound, the GI50 (IGROV1 ovarian) was 13.8 µM, the TGI (IGROV1 ovarian) was 34.3 µM and the GI50 (K-562 leukemia) was 9.44 µM. For the same compound, the TGI (K-562 leukemia) was greater than 100 µM, the GI50 (KM12 colon) was 15.1 µM and the TGI (KM12 colon) was 30.2 µM. It also gave a GI50 (LOX IMVI melanoma) of 11.5 µM, a TGI (LOX IMVI melanoma) of 24.9 µM and a GI50 (M14 melanoma) of 12.2 µM. It also gave a TGI (M14 melanoma) of 27.7 µM, a GI50 (MALME-3M melanoma) of 15 µM and a TGI (MALME-3M melanoma) of 30.1 µM. For the same compound, the GI50 (MCF7 breast) was 3.16 µM, the TGI (MCF7 breast) was 29.6 µM and the GI50 (MDA-MB-231 breast) was 11.5 µM. The TGI (MDA-MB-231 breast) was 25.4 µM, the GI50 (MDA-MB-435) was 13.8 µM and the TGI (MDA-MB-435) was 30 µM. The GI50 (MOLT-4 leukemia) was 21.2 µM, the TGI (MOLT-4 leukemia) was greater than 100 µM and the GI50 (NCI-H226 lung) was 13.7 µM. It also gave a TGI (NCI-H226 lung) of 29.1 µM, a GI50 (NCI-H23 lung) of 14 µM and a TGI (NCI-H23 lung) of 28.6 µM. For the same compound, the GI50 (NCI-H460 lung) was 15.5 µM, the TGI (NCI-H460 lung) was 32.4 µM and the GI50 (NCI-H522 lung) was 8.09 µM. For the same compound, the TGI (NCI-H522 lung) was 24.1 µM, the GI50 (NCI/ADR-RES ovarian) was 12.9 µM and the TGI (NCI/ADR-RES ovarian) was 30.5 µM. It also gave a GI50 (OVCAR-3 ovarian) of 13.4 µM, a TGI (OVCAR-3 ovarian) of 27.2 µM and a GI50 (OVCAR-4 ovarian) of 12.1 µM. It also gave a TGI (OVCAR-4 ovarian) of 26.9 µM, a GI50 (OVCAR-5 ovarian) of 15.8 µM and a TGI (OVCAR-5 ovarian) of 31.5 µM. For the same compound, the GI50 (OVCAR-8 ovarian) was 11.2 µM, the TGI (OVCAR-8 ovarian) was 25.7 µM and the GI50 (PC-3 prostate) was 11 µM. For the same compound, the TGI (PC-3 prostate) was 47.1 µM, the GI50 (RPMI-8226 leukemia) was 6.43 µM and the TGI (RPMI-8226 leukemia) was greater than 100 µM. For the same compound, the GI50 (RXF 393 renal) was 11.1 µM, the TGI (RXF 393 renal) was 25 µM and the GI50 (SF-268 CNS) was 16.5 µM. It also gave a TGI (SF-268 CNS) of 40.2 µM, a GI50 (SF-295 CNS) of 11.9 µM and a TGI (SF-295 CNS) of 25.5 µM. It also gave a GI50 (SF-539 CNS) of 14.4 µM, a TGI (SF-539 CNS) of 28.6 µM and a GI50 (SK-MEL-2 melanoma) of 14.6 µM. The TGI (SK-MEL-2 melanoma) was 29.4 µM, the GI50 (SK-MEL-28 melanoma) was 15.6 µM and the TGI (SK-MEL-28 melanoma) was 30.9 µM. The GI50 (SK-MEL-5 melanoma) was 4.64 µM, the TGI (SK-MEL-5 melanoma) was 18.8 µM and the GI50 (SK-OV-3 ovarian) was 18.4 µM. The TGI (SK-OV-3 ovarian) was 36.2 µM, the GI50 (SN12C renal) was 11.6 µM and the TGI (SN12C renal) was 26.8 µM. For the same compound, the GI50 (SNB-19 CNS) was 14.8 µM, the TGI (SNB-19 CNS) was 31.6 µM and the GI50 (SNB-75 CNS) was 5.2 µM. The TGI (SNB-75 CNS) was 21.9 µM, the GI50 (SR leukemia) was 6.7 µM and the TGI (SR leukemia) was 51 µM. It also gave a GI50 (SW-620 colon) of 17.9 µM, a TGI (SW-620 colon) of 38 µM and a GI50 (T-47D breast) of 14.3 µM. The TGI (T-47D breast) was 49.3 µM, the GI50 (TK-10 renal) was 12 µM and the TGI (TK-10 renal) was 28.8 µM. For the same compound, the GI50 (U251 CNS) was 13.6 µM, the TGI (U251 CNS) was 29.6 µM and the GI50 (UACC-257 melanoma) was 10.5 µM. For the same compound, the TGI (UACC-257 melanoma) was 24.2 µM, the GI50 (UO-31 renal) was 4.56 µM and the TGI (UO-31 renal) was 17.6 µM.

Source: PubChem BioAssay (NCI)
